Data published in patent US20200181104A1, “SSAO INHIBITORS AND USES THEREOF” (METACRINE, INC., priority 2018, published 2020).
pIC50: −log10 of the molar value. Structures can show the parent of a compound that is named as a salt.

Target: T1, Recombinant Human SSAO/VAP-1/AOC3 (Homo sapiens, UniProt Q16853)
T1 construct: purchased R&D systems 3957-AO
T1 sequence (Q16853 1-763): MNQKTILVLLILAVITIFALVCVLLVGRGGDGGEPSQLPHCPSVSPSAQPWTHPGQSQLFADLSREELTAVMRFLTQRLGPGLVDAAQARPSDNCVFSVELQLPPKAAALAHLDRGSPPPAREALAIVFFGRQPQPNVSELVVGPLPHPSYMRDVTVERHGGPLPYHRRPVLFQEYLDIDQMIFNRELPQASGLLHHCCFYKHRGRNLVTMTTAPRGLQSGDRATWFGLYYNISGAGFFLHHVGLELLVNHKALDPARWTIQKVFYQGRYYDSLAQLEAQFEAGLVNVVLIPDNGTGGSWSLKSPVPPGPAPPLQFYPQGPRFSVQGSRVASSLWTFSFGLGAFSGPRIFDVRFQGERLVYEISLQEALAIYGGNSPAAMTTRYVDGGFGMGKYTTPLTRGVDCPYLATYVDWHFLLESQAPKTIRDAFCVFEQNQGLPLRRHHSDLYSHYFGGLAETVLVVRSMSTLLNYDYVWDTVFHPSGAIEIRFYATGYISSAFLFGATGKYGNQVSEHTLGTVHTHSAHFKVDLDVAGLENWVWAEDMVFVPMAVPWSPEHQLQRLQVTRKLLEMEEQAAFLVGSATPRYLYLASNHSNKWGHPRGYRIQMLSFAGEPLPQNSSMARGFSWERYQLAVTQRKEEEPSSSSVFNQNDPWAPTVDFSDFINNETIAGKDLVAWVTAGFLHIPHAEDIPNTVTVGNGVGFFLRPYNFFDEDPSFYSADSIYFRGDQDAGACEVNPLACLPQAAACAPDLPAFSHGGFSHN
Experiment: Human Semicarbazide-Sensitive Amine Oxidase (SSAO) Assay
Type: biochemical
Conditions: recombinant enzyme, 30 minutes preincubation at 37° C., benzylamine substrate, Amplex Ultra Red/HRP fluorescence
Outline: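 Recombinant human SSAO/VAP-1 (2.5 μg/ml working stock in 50 mM HEPES) preincubated with compound 30 min at 37 °C over a 6-10 point CRC. Benzylamine substrate starts the reaction. H2O2 read kinetically over 30-120 min via Amplex Ultra Red/HRP fluorescence (ex 544/em 590 nm) to derive IC50.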

| pIC50 | SMILES |
| --- | --- |
| ≥ 8.00 | COC1(CNC(=O)C23CCC(c4ccc(OC/C(=C/F)CN)cc4)(CC2)CC3)CCC1 [Compound 2.92, (E)-4-(4-((2-(aminomethyl)-3-fluoroallyl)oxy)phenyl)-N-((1-methoxycyclobutyl)methyl) bicyclo[2.2.2]octane-1-carboxamide] |
| ≥ 8.00 | NC/C(=C\F)COc1ccc(C23CCC(C(=O)NC45CC(O)(C4)C5)(CC2)CC3)cc1 [Compound 2.93, (E)-4-(4-((2-(aminomethyl)-3-fluoroallyl)oxy)phenyl)-N-(3-hydroxybicyclo[1.1.1]pentan-1-yl)bicyclo[2.2.2]octane-1-carboxamide] |
| ≥ 8.00 | NC/C(=C\F)COc1ccc(C23CCC(C(=O)N4CC(OC(F)(F)F)C4)(CC2)CC3)cc1 [Compound 2.94, (E)-(4-(4-((2-(aminomethyl)-3-fluoroallyl)oxy)phenyl)bicyclo [2.2.2]octan-1-yl)(3-(trifluoromethoxy)azetidin-1-yl)methanone] |
| ≥ 8.00 | CO[C@H]1C[C@@H](NC(=O)C23CCC(c4ccc(OC/C(=C/F)CN)cc4)(CC2)CC3)C1 [Compound 2.95, 4-(4-(((E)-2-(Aminomethyl)-3-fluoroallyl)oxy)phenyl)-N-(cis-3-methoxycyclobutyl)bicyclo[2.2.2]octane-1-carboxamide Hydrochloride] |
| ≥ 8.00 | NC/C(=C\F)COc1ccc(C23CCC(C(=O)NCC4(O)CCC4)(CC2)CC3)cc1 [Compound 2.96, (E)-4-(4-((2-(aminomethyl)-3-fluoroallyl)oxy)phenyl)-N-((1-hydroxycyclobutyl)methyl) bicyclo[2.2.2]octane-1-carboxamide] |
| ≥ 8.00 | COC(C)(C)CNC(=O)C12CCC(c3ccc(OC/C(=C/F)CN)cc3)(CC1)CC2 [Compound 2.97, (E)-4-(4-((2-(aminomethyl)-3-fluoroallyl)oxy)phenyl)-N-(2-methoxy-2-methylpropyl)bicyclo[2.2.2] octane-1-carboxamide] |
| ≥ 8.00 | COC1(CNC(=O)C23CCC(c4ccc(OC/C(=C/F)CN)cc4)(CC2)CC3)CCOCC1 [Compound 2.98, (E)-4-(4-((2-(aminomethyl)-3-fluoroallyl)oxy)phenyl)-N-((4-methoxytetrahydro-2H-pyran-4-yl)methyl)bicyclo[2.2.2]octane-1-carboxamide] |
| ≥ 8.00 | NC/C(=C\F)COc1ccc(C23CCC(C(=O)N4CC(O)(C5CC5)C4)(CC2)CC3)cc1 [Compound 2.99, (E)-(4-(4-((2-(aminomethyl)-3-fluoroallyl)oxy)phenyl)bicyclo [2.2.2]octan-1-yl)(3-cyclopropyl-3-hydroxyazetidin-1-yl)methanone] |
| ≥ 8.00 | NC/C(=C\F)COc1ccc(C23CCC(C(=O)NCC4(O)CCCC4)(CC2)CC3)cc1 [Compound 2.100, (E)-4-(4-((2-(aminomethyl)-3-fluoroallyl)oxy)phenyl)-N-((1-hydroxycyclopentyl)methyl) bicyclo[2.2.2]octane-1-carboxamide] |
| ≥ 8.00 | NC/C(=C\F)COc1ccc(C23CCC(C(=O)NCC4(O)CCCCC4)(CC2)CC3)cc1 [Compound 2.101, (E)-4-(4-((2-(aminomethyl)-3-fluoroallyl)oxy)phenyl)-N-((1-hydroxycyclohexyl)methyl) bicyclo[2.2.2]octane-1-carboxamide] |
| 7.00 to 8.00 | COC1(CNC(=O)C23CCC(c4ccc(OC/C(=C/F)CN)cc4)(CC2)CC3)CCCCC1 [Compound 2.102, (E)-4-(4-((2-(aminomethyl)-3-fluoroallyl)oxy)phenyl)-N-((1-methoxycyclohexyl)methyl) bicyclo[2.2.2]octane-1-carboxamide] |
| ≥ 8.00 | CC(C)(C#N)CNC(=O)C12CCC(c3ccc(OC/C(=C/F)CN)cc3)(CC1)CC2 [Compound 2.103, (E)-4-(4-((2-(aminomethyl)-3-fluoroallyl)oxy)phenyl)-N-(2-cyano-2-methylpropyl)bicyclo[2.2.2] octane-1-carboxamide] |
| ≥ 8.00 | CC1(C)CC(NC(=O)C23CCC(c4ccc(OC/C(=C/F)CN)cc4)(CC2)CC3)CC(C)(C)O1 [Compound 2.105, (E)-4-(4-((2-(aminomethyl)-3-fluoroallyl)oxy)phenyl)-N-(2,2,6,6-tetramethyltetrahydro-2H-pyran-4-yl)bicyclo[2.2.2]octane-1-carboxamide] |
| ≥ 8.00 | NC/C(=C\F)COc1ccc(C23CCC(C(=O)NC4CCC5(CC4)COC5)(CC2)CC3)cc1 [Compound 2.106, (E)-4-(4-((2-(aminomethyl)-3-fluoroallyl)oxy)phenyl)-N-(2-oxaspiro[3.5]nonan-7-yl)bicyclo[2.2.2]octane-1-carboxamide] |
| ≥ 8.00 | NC/C(=C\F)COc1ccc(C23CCC(C(=O)NCCOC4CCOCC4)(CC2)CC3)cc1 [Compound 2.107] |
| ≥ 8.00 | CC(C)(NC(=O)C12CCC(c3ccc(OC/C(=C/F)CN)cc3)(CC1)CC2)C1CCOCC1 [Compound 2.108, (E)-4-(4-((2-(aminomethyl)-3-fluoroallyl)oxy)phenyl)-N-(2-(tetrahydro-2H-pyran-4-yl)propan-2-yl)bicyclo[2.2.2]octane-1-carboxamide] |
| ≥ 8.00 | NC/C(=C\F)COc1ccc(C23CCC(C(=O)NCC(F)(F)F)(CC2)CC3)cc1 [Compound 2.109, (E)-4-(4-((2-(aminomethyl)-3-fluoroallyl)oxy)phenyl)-N-(2,2,2-trifluoroethyl)bicyclo [2.2.2]octane-1-carboxamide] |
| ≥ 8.00 | CO[C@H]1CCCN(C(=O)C23CCC(c4ccc(OC/C(=C/F)CN)cc4)(CC2)CC3)C1 [Compound 2.110, (S,E)-(4-(4-((2-(aminomethyl)-3-fluoroallyl)oxy)phenyl)bicyclo [2.2.2]octan-1-yl)(3-methoxypiperidin-1-yl)methanone] |
| ≥ 8.00 | CO[C@@H]1CCCN(C(=O)C23CCC(c4ccc(OC/C(=C/F)CN)cc4)(CC2)CC3)C1 [Compound 2.111, (R,E)-(4-(4-((2-(aminomethyl)-3-fluoroallyl)oxy)phenyl)bicyclo [2.2.2]octan-1-yl)(3-methoxypiperidin-1-yl)methanone] |
| ≥ 8.00 | NC/C(=C\F)COc1ccc(C23CCC(C(=O)NC4CCN(CC(F)(F)F)CC4)(CC2)CC3)cc1 [Compound 2.112, (E)-4-(4-((2-(aminomethyl)-3-fluoroallyl)oxy)phenyl)-N-(1-(2,2,2-trifluoroethyl)piperidin-4-yl)bicyclo[2.2.2]octane-1-carboxamide] |
| ≥ 8.00 | NC/C(=C\F)COc1ccc(C23CCC(C(=O)NCC(F)F)(CC2)CC3)cc1 [Compound 2.113, (E)-4-(4-((2-(aminomethyl)-3-fluoroallyl)oxy)phenyl)-N-(2,2-difluoroethyl)bicyclo[2.2.2] octane-1-carboxamide] |
| ≥ 8.00 | NC/C(=C\F)COc1ccc(C23CCC(C(=O)NC4CC5(CCOCC5)C4)(CC2)CC3)cc1 [Compound 2.114, (E)-4-(4-((2-(aminomethyl)-3-fluoroallyl)oxy)phenyl)-N-(7-oxaspiro[3.5]nonan-2-yl)bicyclo[2.2.2]octane-1-carboxamide] |
| ≥ 8.00 | CO[C@H]1CCC[C@@H](NC(=O)C23CCC(c4ccc(OC/C(=C/F)CN)cc4)(CC2)CC3)C1 [Compound 2.116, 4-(4-(((E)-2-(aminomethyl)-3-fluoroallyl)oxy)phenyl)-N-((1R,3S)-3-methoxycyclohexyl)bicyclo [2.2.2]octane-1-carboxamide] |
